Assay results reported in paper PMC9069370, “Integrated Design of a Membrane‐Lytic Peptide‐Based Intravenous Nanotherapeutic Suppresses Triple‐Negative Breast Cancer” (Advanced Science, 2022).
Peptide text beside a SMILES is read from it.

Experiments:
HEK293T = assay: cells; type: cell-based, human; details: 72 h
U2OS = type: cell-based, human; details: 72 h
[1] = ANTS/DPX liposome leakage assay; details: 0.5 mM vesicles, peptide 0-20 µM, 3 h incubation, lipid per peptide; for Peptide Concentration-induced 50 % ANTS/DPX leakage at pH 4.8 (L/P), 3POPC/1POPG Vesicle / Peptide Concentration-induced 50 % ANTS/DPX leakage at pH 4.8 (L/P), POPC Vesicle: HCl-adjusted PBS 1X pH 4.8; for Peptide Concentration-induced 50 % ANTS/DPX leakage at pH 7.4 (L/P), 3POPC/1POPG Vesicle / Peptide Concentration-induced 50 % ANTS/DPX leakage at pH 7.4 (L/P), POPC Vesicle: PBS 1X pH 7.4, high ratio = more potent
Outline: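 Extruded 0.1 µm POPC or POPC/POPG (3:1) vesicles were loaded with 5 mM ANTS and 12.5 mM DPX, gel-filtered, then used at 0.5 mM lipid with titrated peptide at pH 7.4 or pH 4.8 (acidified PBS). Leakage was read at ex 350/em 510 nm after 3 h against 10% Triton maximum, expressed as lipid/peptide ratio for 50% leakage.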

HMLER‐shEcad = assay: cells; type: cell-based, human; details: 72 h
From the text: (§1) […], and MCF-10A cells were maintained in MEGM with supplements and growth factors bovine pituitary extract, hydrocortisone, human epidermal growth factor, insulin, and gentamicin/amphotericin-B.

MCF‐10A = assay: cells; type: cell-based, human; details: 72 h
From the text: as §1

HMLER = assay: cells; type: cell-based, human; details: 72 h
From the text: as §1

[2] = Tryptophan fluorescent binding assay; details: tryptophan fluorescence; 50 µM peptide, lipid titrated 0-5000 µM; phosphate buffered saline 1X, pH 7.4; values as lipid per peptide
Outline: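 Tryptophan fluorescence was used to follow binding of peptide, fixed at 50 µM, to large unilamellar vesicles of POPC:POPG (3:1 ratio) titrated into phosphate buffered saline (1X, pH 7.4). After 1 h incubation, spectra were taken on a BioTek Cytation 5 reader with excitation at 280 nm and emission at 300 to 450 nm (9 nm slits), averaging three scans.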

| SMILES | IC50 (U2OS) | IC50 (HMLER‐shEcad) | IC50 (MCF‐10A) | IC50 (HMLER) | Lipid Concentration-induced 50% Peptide Binding (L/P), 3POPC/1POPG Vesicle [2] | Lipid Concentration-induced 50% Peptide Binding (L/P), POPC Vesicle [2] | IC50 (HEK293T) | Peptide Concentration-induced 50 % ANTS/DPX leakage at pH 4.8 (L/P), 3POPC/1POPG Vesicle [1] | Peptide Concentration-induced 50 % ANTS/DPX leakage at pH 4.8 (L/P), POPC Vesicle [1] | Peptide Concentration-induced 50 % ANTS/DPX leakage at pH 7.4 (L/P), 3POPC/1POPG Vesicle [1] | Peptide Concentration-induced 50 % ANTS/DPX leakage at pH 7.4 (L/P), POPC Vesicle [1] |
| --- | --- | --- | --- | --- | --- | --- | --- | --- | --- | --- | --- |
| CC(C)C[C@H](NC(=O)CN)C(=O)N[C@@H](CC(C)C)C(=O)N[C@@H](CCCCN)C(=O)N[C@@H](CC(C)C)C(=O)N[C@@H](CC(C)C)C(=O)N[C@@H](CCC(=O)O)C(=O)N[C@@H](CC(C)C)C(=O)N[C@@H](CC(C)C)C(=O)N[C@@H](CC(C)C)C(=O)N[C@@H](Cc1c[nH]cn1)C(=O)N[C@@H](C)C(=O)N[C@@H](C)C(=O)NCC(=O)N[C@@H](Cc1c[nH]c2ccccc12)C(N)=O [KEH] (H-GLLKLLELLLHAAGW-NH2) | 49.2 ± 5.3 µM | 2.35 ± 0.07 µM | 20 µM | 3.3 ± 0.42 µM | 0.50 L/P | 1.00 L/P | 5.65 ± 0.07 µM | 68 L/P | 188 L/P | 286 L/P | 995 L/P |
| CC(C)C[C@H](NC(=O)CN)C(=O)N[C@@H](CC(C)C)C(=O)N[C@@H](CCCCN)C(=O)N[C@@H](CC(C)C)C(=O)N[C@@H](CC(C)C)C(=O)N[C@@H](CCC(=O)O)C(=O)N[C@@H](CC(C)C)C(=O)N[C@@H](CC(C)C)C(=O)N[C@@H](CC(C)C)C(=O)N[C@@H](CCCCN)C(=O)N[C@@H](C)C(=O)N[C@@H](C)C(=O)NCC(=O)N[C@@H](Cc1c[nH]c2ccccc12)C(N)=O [KEK] (H-GLLKLLELLLKAAGW-NH2) | 8.15 ± 0.49 µM | 1.35 ± 0.07 µM | 1.55 ± 0.07 µM | 1.6 ± 0.14 µM | 0.50 L/P | 0.47 L/P | 3.2 ± 0.14 µM | 126 L/P | 110 L/P | 438 L/P | 1173 L/P |
| CC(C)C[C@H](NC(=O)CN)C(=O)N[C@@H](CC(C)C)C(=O)N[C@@H](CCCCN)C(=O)N[C@@H](CC(C)C)C(=O)N[C@@H](CC(C)C)C(=O)N[C@@H](Cc1c[nH]cn1)C(=O)N[C@@H](CC(C)C)C(=O)N[C@@H](CC(C)C)C(=O)N[C@@H](CC(C)C)C(=O)N[C@@H](CCC(=O)O)C(=O)N[C@@H](C)C(=O)N[C@@H](C)C(=O)NCC(=O)N[C@@H](Cc1c[nH]c2ccccc12)C(N)=O [KHE] (H-GLLKLLHLLLEAAGW-NH2) | 53 ± 2.83 µM | 2.92 ± 0.17 µM | 20.9 ± 5.87 µM | 3.7 ± 0.14 µM | 0.71 L/P | 0.88 L/P | 26 ± 2.83 µM | 156 L/P | 183 L/P | 188 L/P | 981 L/P |
| CC(C)C[C@H](NC(=O)CN)C(=O)N[C@@H](CC(C)C)C(=O)N[C@@H](CCCCN)C(=O)N[C@@H](CC(C)C)C(=O)N[C@@H](CC(C)C)C(=O)N[C@@H](Cc1c[nH]cn1)C(=O)N[C@@H](CC(C)C)C(=O)N[C@@H](CC(C)C)C(=O)N[C@@H](CC(C)C)C(=O)N[C@@H](Cc1c[nH]cn1)C(=O)N[C@@H](C)C(=O)N[C@@H](C)C(=O)NCC(=O)N[C@@H](Cc1c[nH]c2ccccc12)C(N)=O [KHH] (H-GLLKLLHLLLHAAGW-NH2) | 39.8 ± 5.3 µM | 4.45 ± 0.49 µM | 10.3 ± 0.49 µM | 5.2 ± 0.71 µM | 0.94 L/P | 3.50 L/P | 7.75 ± 0.78 µM | 48 L/P | 227 L/P | 329 L/P | 1153 L/P |
| CC(C)C[C@H](NC(=O)CN)C(=O)N[C@@H](CC(C)C)C(=O)N[C@@H](CCCCN)C(=O)N[C@@H](CC(C)C)C(=O)N[C@@H](CC(C)C)C(=O)N[C@@H](Cc1c[nH]cn1)C(=O)N[C@@H](CC(C)C)C(=O)N[C@@H](CC(C)C)C(=O)N[C@@H](CC(C)C)C(=O)N[C@@H](CCCCN)C(=O)N[C@@H](C)C(=O)N[C@@H](C)C(=O)NCC(=O)N[C@@H](Cc1c[nH]c2ccccc12)C(N)=O [KHK] (H-GLLKLLHLLLKAAGW-NH2) | 12.9 ± 1.24 µM | 1.4 ± 0.14 µM | 1.81 ± 0.05 µM | 2.59 ± 0.92 µM | 0.38 L/P | 0.17 L/P | 3.55 ± 0.78 µM | 53 L/P | 140 L/P | 193 L/P | 1153 L/P |
| CC(C)C[C@H](NC(=O)CN)C(=O)N[C@@H](CC(C)C)C(=O)N[C@@H](CCCCN)C(=O)N[C@@H](CC(C)C)C(=O)N[C@@H](CC(C)C)C(=O)N[C@@H](CCCCN)C(=O)N[C@@H](CC(C)C)C(=O)N[C@@H](CC(C)C)C(=O)N[C@@H](CC(C)C)C(=O)N[C@@H](Cc1c[nH]cn1)C(=O)N[C@@H](C)C(=O)N[C@@H](C)C(=O)NCC(=O)N[C@@H](Cc1c[nH]c2ccccc12)C(N)=O [KKH] (H-GLLKLLKLLLHAAGW-NH2) | 13.3 ± 0.99 µM | 2.2 ± 0.42 µM | 1.75 ± 0.35 µM | 2.4 ± 0.85 µM | 0.48 L/P | 0.83 L/P | 4 ± 0.28 µM | 49 L/P | 164 L/P | 227 L/P | 2119 L/P |

More lines, main results first:

| IC50 (U2OS) | IC50 (HMLER‐shEcad) | IC50 (MCF‐10A) | IC50 (HMLER) | Lipid Concentration-induced 50% Peptide Binding (L/P), 3POPC/1POPG Vesicle [2] | Lipid Concentration-induced 50% Peptide Binding (L/P), POPC Vesicle [2] | SMILES | IC50 (HEK293T) | Peptide Concentration-induced 50 % ANTS/DPX leakage at pH 4.8 (L/P), 3POPC/1POPG Vesicle [1] | Peptide Concentration-induced 50 % ANTS/DPX leakage at pH 4.8 (L/P), POPC Vesicle [1] | Peptide Concentration-induced 50 % ANTS/DPX leakage at pH 7.4 (L/P), 3POPC/1POPG Vesicle [1] | Peptide Concentration-induced 50 % ANTS/DPX leakage at pH 7.4 (L/P), POPC Vesicle [1] |
| --- | --- | --- | --- | --- | --- | --- | --- | --- | --- | --- | --- |
| 18.9 ± 1.24 µM | 3.1 ± 0.57 µM | 6.1 µM | 3.45 ± 0.21 µM | 0.38 L/P | 0.18 L/P | CC(C)C[C@H](NC(=O)CN)C(=O)N[C@@H](CC(C)C)C(=O)N[C@@H](Cc1c[nH]cn1)C(=O)N[C@@H](CC(C)C)C(=O)N[C@@H](CC(C)C)C(=O)N[C@@H](CCCCN)C(=O)N[C@@H](CC(C)C)C(=O)N[C@@H](CC(C)C)C(=O)N[C@@H](CC(C)C)C(=O)N[C@@H](Cc1c[nH]cn1)C(=O)N[C@@H](C)C(=O)N[C@@H](C)C(=O)NCC(=O)N[C@@H](Cc1c[nH]c2ccccc12)C(N)=O [HKH] (H-GLLHLLKLLLHAAGW-NH2) | 5.7 ± 0.99 µM | 47 L/P | 193 L/P | 274 L/P | 1077 L/P |
| 12.23 ± 0.11 µM | 2.6 ± 0.42 µM | 2.18 ± 0.39 µM | 3.4 ± 0.71 µM | 0.14 L/P | 0.18 L/P | CC(C)C[C@H](NC(=O)CN)C(=O)N[C@@H](CC(C)C)C(=O)N[C@@H](Cc1c[nH]cn1)C(=O)N[C@@H](CC(C)C)C(=O)N[C@@H](CC(C)C)C(=O)N[C@@H](CCCCN)C(=O)N[C@@H](CC(C)C)C(=O)N[C@@H](CC(C)C)C(=O)N[C@@H](CC(C)C)C(=O)N[C@@H](CCCCN)C(=O)N[C@@H](C)C(=O)N[C@@H](C)C(=O)NCC(=O)N[C@@H](Cc1c[nH]c2ccccc12)C(N)=O [HKK] (H-GLLHLLKLLLKAAGW-NH2) | 9.5 ± 0.99 µM | 106 L/P | 106 L/P | 90 L/P | 657 L/P |
| 12.8 ± 1.2 µM | 1.7 µM | 2.9 ± 0.57 µM | 2.05 ± 0.64 µM | 0.44 L/P | 0.48 L/P | CC(C)C[C@H](NC(=O)CN)C(=O)N[C@@H](CC(C)C)C(=O)N[C@@H](CCCCN)C(=O)N[C@@H](CC(C)C)C(=O)N[C@@H](CC(C)C)C(=O)N[C@@H](CCCCN)C(=O)N[C@@H](CC(C)C)C(=O)N[C@@H](CC(C)C)C(=O)N[C@@H](CC(C)C)C(=O)N[C@@H](CCC(=O)O)C(=O)N[C@@H](C)C(=O)N[C@@H](C)C(=O)NCC(=O)N[C@@H](Cc1c[nH]c2ccccc12)C(N)=O [KKE] (H-GLLKLLKLLLEAAGW-NH2) | 4.4 ± 0.14 µM | 131 L/P | 143 L/P | 346 L/P | 1133 L/P |
